This passage reports Ki results from US20080306056A1, “PYRAZOLE-DERIVATIVES AS FACTOR Xa INHIBITORS” (SANOFI-AVENTIS DEUTSCHLAND GMBH, priority 2002, published 2008).

T1 sequence (P00742 235-488 limits assumed): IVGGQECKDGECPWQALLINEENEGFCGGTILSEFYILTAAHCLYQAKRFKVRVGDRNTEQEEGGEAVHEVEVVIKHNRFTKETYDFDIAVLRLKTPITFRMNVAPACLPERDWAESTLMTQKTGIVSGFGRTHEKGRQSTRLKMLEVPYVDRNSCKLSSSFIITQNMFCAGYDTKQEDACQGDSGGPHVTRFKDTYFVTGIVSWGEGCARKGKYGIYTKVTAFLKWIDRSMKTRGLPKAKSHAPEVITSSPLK
T1 sequence (P00742 41-179 partner limits assumed): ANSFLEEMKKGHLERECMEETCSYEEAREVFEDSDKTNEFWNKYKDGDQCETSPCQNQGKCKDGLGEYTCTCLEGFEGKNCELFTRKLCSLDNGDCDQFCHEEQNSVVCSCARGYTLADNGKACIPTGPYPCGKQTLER

This assay addresses T1, human factor Xa (Homo sapiens, UniProt P00742).
T1 construct: 25 μl human factor Xa (Enzyme Research Laboratories, Inc; South Bend, Ind.); purchased Enzyme Research Laboratories, Inc; South Bend, Ind
The experiment in a line: Factor Xa assay (chromogenic, purified enzyme). In kind it is biochemical. The settings on record: inhibition constant for factor Xa; chromogenic substrate S-2765 140 μM, enzyme 0.5 nM, 25° C., pH 7.8; Ki=IC50/{1+(substrate concentration/Km)}; read-out: Ki(FXa). The method in brief:
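Human factor Xa (0.5 nM) pre-incubated 10 min with compound in TBS-PEG/DMSO, then S-2765 (140 μM) added; initial hydrolysis rate read at 405 nm, 25°C. IC50 by linear regression of relative rate vs log concentration; Ki = IC50/(1+[S]/Km).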
The term Ki denotes a measure of affinity in units of concentration, obtained from inhibition or displacement. For the molecule `CC(C)N1CCC(NC(=O)c2cc(C(=O)OCC3CC3)nn2CC(=O)Nc2ccc(Cl)cn2)CC1` [Example 96, 1-[(5-Chloro-pyridin-2-ylcarbamoyl)-methyl]-5-(1-isopropyl-piperidin-4-ylcarbamoyl)-1H-pyrazole-3-carboxylic acid cyclopropylmethyl ester], the Ki was determined as 18 nM.

Turning to `CCOC(=O)C(NC(=O)c1cc(C(=O)NC2CCN(C(C)C)CC2)n(Cc2cc(-c3ccc(Cl)s3)on2)n1)C(C)C` (centres unmarked) [Example 97, 2-{[1-[5-(5-Chloro-thiophen-2-yl)-isoxazol-3-ylmethyl]-5-(1-isopropyl-piperidin-4-ylcarbamoyl)-1H-pyrazole-3-carbonyl]-amino}-3-methyl-butyric acid ethyl ester], the Ki amounted to 228 nM.

As for `CC(C)C(NC(=O)c1cc(C(=O)NC2CCN(C(C)C)CC2)n(Cc2cc(-c3ccc(Cl)s3)on2)n1)C(=O)O` (centres unmarked) [Example 98, 2-{[1-[5-(5-Chloro-thiophen-2-yl)-isoxazol-3-ylmethyl]-5-(1-isopropyl-piperidin-4-ylcarbamoyl)-1H-pyrazole-3-carbonyl]-amino}-3-methyl-butyric acid], the Ki was found to be 140 nM.

For the molecule `O=C(Nc1ccc(N2CCOCC2=O)cc1)c1cc(-c2ccco2)n(Cc2cc(-c3ccc(Cl)s3)on2)n1` [Example 99, 1-[5-(5-Chloro-thiophen-2-yl)-isoxazol-3-ylmethyl]-5-furan-2-yl-1H-pyrazole-3-carboxylic acid [4-(3-oxo-morpholin-4-yl)-phenyl]-amide], the Ki was found to be 11 nM.

Take `COCCOCCOc1cc(C(=O)NC2CCN(C(C)C)CC2)n(CC(=O)Nc2ccc(Cl)cn2)n1` [Example 104, 2-[(5-Chloro-pyridin-2-ylcarbamoyl)-methyl]-5-[2-(2-methoxy-ethoxy)-ethoxy]-2H-pyrazole-3-carboxylic acid (1-isopropyl-piperidin-4-yl)-amide]: the inhibition constant Ki is 25 nM.

Consider `CC(C)N1CCC(NC(=O)c2cc(OCC(F)(F)F)nn2CC(=O)Nc2ccc(Cl)cn2)CC1` [Example 105, 2-[(5-Chloro-pyridin-2-ylcarbamoyl)-methyl]-5-(2,2,2-trifluoro-ethoxy)-2H-pyrazole-3-carboxylic acid (1-isopropyl-piperidin-4-yl)-amide], for which the Ki is 21 nM.

As for `COCCOC(=O)c1cc(C(=O)NC2CCN(C(C)C)CC2)n(CC(=O)Nc2ccc(Cl)cn2)n1` [Example 106, 1-[(5-Chloro-pyridin-2-ylcarbamoyl)-methyl]-5-(1-isopropyl-piperidin-4-ylcarbamoyl)-1H-pyrazole-3-carboxylic acid 2-methoxy-ethyl ester], the inhibition constant Ki turned out to be 16 nM.

Regarding `CC(C)N1CCC(NC(=O)c2cc(C(=O)OCCO)nn2CC(=O)Nc2ccc(Cl)cn2)CC1` [Example 107, 1-[(5-Chloro-pyridin-2-ylcarbamoyl)-methyl]-5-(1-isopropyl-piperidin-4-ylcarbamoyl)-1H-pyrazole-3-carboxylic acid 2-hydroxy-ethyl ester], the Ki amounted to 20 nM.

On to `CC(C)N1CCC(NC(=O)c2cc(C(=O)N3CCCOCC3)nn2CC(=O)Nc2ccc(Cl)cn2)CC1` [Example 108, 2-[(5-Chloro-pyridin-2-ylcarbamoyl)-methyl]-5-([1,4]oxazepane-4-carbonyl)-2H-pyrazole-3-carboxylic acid (1-isopropyl-piperidin-4-yl)-amide], for which the inhibitory constant (Ki) turned out to be 39 nM.

Take `CC(C)N1CCC(NC(=O)c2cc(C(=O)OCCO)nn2Cc2cc(-c3ccc(Cl)s3)on2)CC1` [Example 110, 1-[5-(5-Chloro-thiophen-2-yl)-isoxazol-3-ylmethyl]-5-(1-isopropyl-piperidin-4-ylcarbamoyl)-1H-pyrazole-3-carboxylic acid 2-hydroxy-ethyl ester]: the inhibitory constant (Ki) turned out to be 81 nM.

Turning to `CC(C)N1CCC(NC(=O)c2cc(C(=O)OCC(=O)O)nn2Cc2cc(-c3ccc(Cl)s3)on2)CC1` [Example 111, 1-[5-(5-Chloro-thiophen-2-yl)-isoxazol-3-ylmethyl]-5-(1-isopropyl-piperidin-4-ylcarbamoyl)-1H-pyrazole-3-carboxylic acid carboxymethyl ester], the Ki stood at 49 nM.
